Data from PubChem BioAssay AID330 (DTP/NCI, 2004).
Several values for one entry are separate records, joined by “and”; a condition that tells them apart may be missing. Equal entries are not always repeated. Toxic doses and inconclusive results are not listed.

Tested on: P388 leukemia ip, CD2F1 mice, survival T/C
Assay: NCI In Vivo Anticancer Drug Screen. Data for tumor model P388 Leukemia (intraperitoneal) in CD2F1 (CDF1) mice
Conditions: endpoint: median survival time, higher = longer survival
Outline: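 Mice carrying the transplanted tumor received test compound or vehicle. Survival was recorded in each group, and the value is the treated-group measurement divided by that of the vehicle-treated control group.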

[1] = dose: 100.0 mg/kg/injection, schedule: Q01DX005 (ip), vehicle: saline
[2] = dose: 5.0 mg/kg/injection, schedule: Q01DX009 (ip), vehicle: saline
[3] = dose: 10.0 mg/kg/injection, schedule: Q01DX009 (ip), vehicle: saline
[4] = dose: 100.0 mg/kg/injection, schedule: Q01DX009 (ip), vehicle: Klucel (hydroxypropylcellulose) (HPC)
[5] = dose: 200.0 mg/kg/injection, schedule: Q01DX009 (ip), vehicle: Klucel (hydroxypropylcellulose) (HPC)
[6] = dose: 400.0 mg/kg/injection, schedule: Q01DX009 (ip), vehicle: Klucel (hydroxypropylcellulose) (HPC)
[7] = dose: 50.0 mg/kg/injection, schedule: Q01DX009 (ip), vehicle: saline
[8] = dose: 100.0 mg/kg/injection, schedule: Q01DX009 (ip), vehicle: saline

CCN(CC)Cc1ccccc1CO
T/C (dose: 50.0 mg/kg/injection, schedule: Q01DX005 (ip), vehicle: saline): 110 % of control | T/C [1]: 106 % of control

CC1=CC(=O)C2OC2C1=O (stereo not drawn)
T/C (dose: 5.0 mg/kg/injection, schedule: Q04DX002 (ip), vehicle: saline with Tween-80): 101 % of control

C=C(CO)CC(CC(=C)CCS(=O)(=O)c1ccccc1)S(=O)(=O)c1ccccc1 (stereo not drawn)
T/C (dose: 60.0 mg/kg/injection, schedule: Q01DX005 (ip), vehicle: saline with Tween-80): 94 % of control | T/C (dose: 120.0 mg/kg/injection, schedule: Q01DX005 (ip), vehicle: saline with Tween-80): 106 % of control | T/C (dose: 240.0 mg/kg/injection, schedule: Q01DX005 (ip), vehicle: saline with Tween-80): 100 % of control

NS(=O)(=O)c1ccc(NCc2cnc3ccccc3n2)cc1
T/C [2]: 87 % of control | T/C [3]: 94 % of control | T/C (dose: 20.0 mg/kg/injection, schedule: Q01DX009 (ip), vehicle: saline): 94 % of control

COC(=O)C1=C/CCCN(C=O)/C=C\1C(=O)OC
T/C (dose: 100.0 mg/kg/injection, schedule: Q04DX003 (ip), vehicle: alcohol): 103 % of control | T/C (dose: 200.0 mg/kg/injection, schedule: Q04DX003 (ip), vehicle: alcohol): 103 % of control | T/C (dose: 400.0 mg/kg/injection, schedule: Q04DX003 (ip), vehicle: alcohol): 103 % of control

Nc1ccc(C(=O)CC(O)(C(F)(F)F)C(F)(F)F)cc1
T/C (dose: 75.0 mg/kg/injection, schedule: Q04DX003 (ip), vehicle: saline with Tween-80): 95 % of control | T/C (dose: 150.0 mg/kg/injection, schedule: Q04DX003 (ip), vehicle: saline with Tween-80): 95 % of control | T/C (dose: 300.0 mg/kg/injection, schedule: Q04DX003 (ip), vehicle: saline with Tween-80): 100 % of control

Cc1c(N)nc(C(CC(N)=O)NCC(N)C(N)=O)nc1C(=O)NC(C(=O)NC(C)C(O)C(C)C(=O)NC(C(=O)NCCc1nc(-c2nc(C(=O)NCCCNCCCCN)cs2)cs1)C(C)O)C(OC1OC(CO)C(O)C(O)C1OC1OC(CO)C(O)C(OC(N)=O)C1O)c1cnc[nH]1 (stereo not drawn)
T/C (dose: 12.5 mg/kg/injection, schedule: Q01DX005 (ip), vehicle: saline): 117 % of control | T/C [1]: 104 % of control

[N-]=[N+]=CC(=O)CCC(NC(=O)OCc1ccccc1)C(=O)OCc1ccccc1 (stereo not drawn)
T/C (dose: 0.78 mg/kg/injection, schedule: Q01DX005 (ip), vehicle: Klucel (hydroxypropylcellulose) (HPC)): 102 % of control | T/C (dose: 1.56 mg/kg/injection, schedule: Q01DX005 (ip), vehicle: Klucel (hydroxypropylcellulose) (HPC)): 110 % of control | T/C (dose: 3.13 mg/kg/injection, schedule: Q01DX005 (ip), vehicle: Klucel (hydroxypropylcellulose) (HPC)): 101 % of control | T/C (dose: 6.25 mg/kg/injection, schedule: Q01DX005 (ip), vehicle: Klucel (hydroxypropylcellulose) (HPC)): 104 % of control | T/C (dose: 12.5 mg/kg/injection, schedule: Q01DX005 (ip), vehicle: Klucel (hydroxypropylcellulose) (HPC)): 99 % of control and 101 % of control and 113 % of control | T/C (dose: 25.0 mg/kg/injection, schedule: Q01DX005 (ip), vehicle: Klucel (hydroxypropylcellulose) (HPC)): 110 % of control and 120 % of control | T/C (dose: 36.0 mg/kg/injection, schedule: Q01DX005 (ip), vehicle: Klucel (hydroxypropylcellulose) (HPC)): 107 % of control | T/C (dose: 60.0 mg/kg/injection, schedule: Q01DX005 (ip), vehicle: Klucel (hydroxypropylcellulose) (HPC)): 120 % of control | T/C (dose: 278.0 mg/kg/injection, schedule: Q01DX005 (ip), vehicle: Klucel (hydroxypropylcellulose) (HPC)): 152 % of control

C1CN2CCCN3CCCN(C1)P23
T/C (dose: 100.0 mg/kg/injection, schedule: Q04DX002 (ip), vehicle: saline): 115 % of control | T/C (dose: 200.0 mg/kg/injection, schedule: Q04DX002 (ip), vehicle: saline): 98 % of control

CCCN1CCN(c2ccc([N+](=O)[O-])c3no[n+]([O-])c23)CC1
T/C (dose: 1.25 mg/kg/injection, schedule: Q01DX009 (ip), vehicle: saline): 98 % of control and 97 % of control | T/C (dose: 2.5 mg/kg/injection, schedule: Q01DX009 (ip), vehicle: saline): 100 % of control and 107 % of control | T/C [2]: 100 % of control and 108 % of control | T/C [3]: 110 % of control and 120 % of control

CC(C)(C)OC(=O)C(CC(=O)O)=C(c1ccccc1)c1ccccc1
T/C [4]: 100 % of control | T/C [5]: 100 % of control | T/C [6]: 95 % of control

CCOC(=O)c1c[nH]c2ccc3[nH]cnc3c2c1=O
T/C (dose: 50.0 mg/kg/injection, schedule: Q01DX005 (ip), vehicle: Klucel (hydroxypropylcellulose) (HPC)): 95 % of control | T/C (dose: 100.0 mg/kg/injection, schedule: Q01DX005 (ip), vehicle: Klucel (hydroxypropylcellulose) (HPC)): 99 % of control | T/C (dose: 200.0 mg/kg/injection, schedule: Q01DX005 (ip), vehicle: Klucel (hydroxypropylcellulose) (HPC)): 95 % of control

C[Si](C)(C)/N=C(/O[Si](C)(C)C)C(F)(F)F
T/C (dose: 60.0 mg/kg/injection, schedule: Q01DX005 (ip), vehicle: saline): 101 % of control | T/C (dose: 120.0 mg/kg/injection, schedule: Q01DX005 (ip), vehicle: saline): 111 % of control | T/C (dose: 240.0 mg/kg/injection, schedule: Q01DX005 (ip), vehicle: saline): 108 % of control

c1cnc2c(c1)C1OC(S2)c2cccnc2S1
T/C (dose: 50.0 mg/kg/injection, schedule: Q01DX009 (ip), vehicle: saline with Tween-80): 102 % of control | T/C (dose: 100.0 mg/kg/injection, schedule: Q01DX009 (ip), vehicle: saline with Tween-80): 97 % of control

COc1cc2c(c(OC)c1OC)-c1ccc(SC)c(=O)cc1C(NC(=O)c1ccccc1)CC2 (stereo not drawn)
T/C (dose: 2.5 mg/kg/injection, schedule: Q01DX009 (ip), vehicle: Klucel (hydroxypropylcellulose) (HPC)): 155 % of control | T/C (dose: 5.0 mg/kg/injection, schedule: Q01DX009 (ip), vehicle: Klucel (hydroxypropylcellulose) (HPC)): 117 % of control | T/C (dose: 625.0 micrograms/kg/injection, schedule: Q01DX009 (ip), vehicle: Klucel (hydroxypropylcellulose) (HPC)): 112 % of control | T/C (dose: 1250.0 micrograms/kg/injection, schedule: Q01DX009 (ip), vehicle: Klucel (hydroxypropylcellulose) (HPC)): 120 % of control | T/C (dose: 10000.0 micrograms/kg/injection, schedule: Q01DX009 (ip), vehicle: Klucel (hydroxypropylcellulose) (HPC)): 90 % of control

Cc1ccc(-c2c(Br)c(OC(=O)CO[C@@H]3C[C@H](C)CC[C@H]3C(C)C)c(-c3ccc(C)cc3C)c(Br)c2OC(=O)CO[C@H]2C[C@@H](C)CC[C@@H]2C(C)C)c(C)c1
T/C (dose: 50.0 mg/kg/injection, schedule: Q01DX005 (ip), vehicle: saline with Tween-80): 95 % of control | T/C (dose: 100.0 mg/kg/injection, schedule: Q01DX005 (ip), vehicle: saline with Tween-80): 88 % of control | T/C (dose: 200.0 mg/kg/injection, schedule: Q01DX005 (ip), vehicle: saline with Tween-80): 88 % of control

O=c1c2ccccc2oc2cccc(NCCCN3CCN(CCCNc4cccc5oc6ccccc6c(=O)c45)CC3)c12
T/C (dose: 7.0 mg/kg/injection, schedule: Q01DX005 (ip), vehicle: saline with Tween-80): 90 % of control

Cc1ccc2c(c1)nc(N)n2N
T/C (dose: 100.0 mg/kg/injection, schedule: Q01DX001 (ip), vehicle: Klucel (hydroxypropylcellulose) (HPC)): 100 % of control | T/C (dose: 200.0 mg/kg/injection, schedule: Q01DX001 (ip), vehicle: Klucel (hydroxypropylcellulose) (HPC)): 98 % of control | T/C (dose: 400.0 mg/kg/injection, schedule: Q01DX001 (ip), vehicle: Klucel (hydroxypropylcellulose) (HPC)): 89 % of control

CC(/C=N\NC(=S)SCc1ccccc1)=N/N=C(N)N
T/C (dose: 6.25 mg/kg/injection, schedule: Q01DX009 (ip), vehicle: saline with Tween-80): 101 % of control | T/C (dose: 12.5 mg/kg/injection, schedule: Q01DX009 (ip), vehicle: saline with Tween-80): 95 % of control | T/C (dose: 25.0 mg/kg/injection, schedule: Q01DX009 (ip), vehicle: saline with Tween-80): 101 % of control | T/C [7]: 91 % of control | T/C [8]: 92 % of control

O=C1CSC(=S)N1c1cccc(Cl)c1
T/C (dose: 50.0 mg/kg/injection, schedule: Q01DX009 (ip), vehicle: Klucel (hydroxypropylcellulose) (HPC)): 107 % of control and 122 % of control | T/C [4]: 118 % of control and 121 % of control | T/C [5]: 111 % of control | T/C [6]: 100 % of control

NC(=O)c1ccc([N+](=O)[O-])o1
T/C (dose: 12.5 mg/kg/injection, schedule: Q01DX009 (ip), vehicle: saline): 99 % of control | T/C (dose: 25.0 mg/kg/injection, schedule: Q01DX009 (ip), vehicle: saline): 100 % of control | T/C [7]: 95 % of control | T/C [8]: 108 % of control

CCOC(=O)CC(COC)C(Br)(C(=O)OCC)C(=O)OCC (stereo not drawn)
T/C (dose: 1.56 mg/kg/injection, schedule: Q01DX009 (ip), vehicle: water): 104 % of control | T/C (dose: 3.13 mg/kg/injection, schedule: Q01DX009 (ip), vehicle: water): 111 % of control | T/C (dose: 6.25 mg/kg/injection, schedule: Q01DX009 (ip), vehicle: water): 107 % of control | T/C (dose: 12.5 mg/kg/injection, schedule: Q01DX009 (ip), vehicle: water): 114 % of control | T/C (dose: 25.0 mg/kg/injection, schedule: Q01DX009 (ip), vehicle: water): 113 % of control
